From ChEMBL document CHEMBL4043269, “Synthesis and structure activity relationships of carbamimidoylcarbamate derivatives as novel vascular adhesion protein-1 inhibitors” (Bioorg Med Chem, 2017) come the findings set out here.

Where only a bound is given, the exact number is not on record here.

Data set [1] can be described thus: Aqueous solubility of compound in Japanese pharmacopoeia second fluid at pH 6.8 at 130 uM after 20 hrs by HPLC analysis. It counts as physicochemical.
For the next data set, the target named is T1, CYP1A2 (Homo sapiens, UniProt P05177).
T1 sequence (P05177 whole entry): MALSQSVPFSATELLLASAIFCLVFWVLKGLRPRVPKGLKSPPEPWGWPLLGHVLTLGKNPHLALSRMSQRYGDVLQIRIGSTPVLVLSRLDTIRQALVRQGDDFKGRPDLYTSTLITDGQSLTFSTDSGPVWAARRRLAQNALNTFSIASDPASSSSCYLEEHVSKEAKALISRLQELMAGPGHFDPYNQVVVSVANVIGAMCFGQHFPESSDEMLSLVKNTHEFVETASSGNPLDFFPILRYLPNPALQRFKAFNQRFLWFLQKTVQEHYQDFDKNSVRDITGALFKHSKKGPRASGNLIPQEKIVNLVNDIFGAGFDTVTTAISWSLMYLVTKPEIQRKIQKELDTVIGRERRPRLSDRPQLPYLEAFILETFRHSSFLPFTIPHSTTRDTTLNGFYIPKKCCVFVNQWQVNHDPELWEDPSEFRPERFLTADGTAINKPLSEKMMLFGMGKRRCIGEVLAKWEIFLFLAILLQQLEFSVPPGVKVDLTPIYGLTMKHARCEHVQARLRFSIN
Put plainly: Inhibition of CYP1A2 in human liver microsomes using phenacetin as substrate assessed as residual activity at 5 uM after 20 mins by HPLC analysis. The following applies: probe phenacetin, read-out: Activity. It is filed as ADME. For orientation: Liver microsomes are vesicles of endoplasmic reticulum, rich in cytochrome P450 enzymes.

In a further data set the target is T2, CYP2C8 (Homo sapiens, UniProt P10632).
T2 sequence (P10632 whole entry): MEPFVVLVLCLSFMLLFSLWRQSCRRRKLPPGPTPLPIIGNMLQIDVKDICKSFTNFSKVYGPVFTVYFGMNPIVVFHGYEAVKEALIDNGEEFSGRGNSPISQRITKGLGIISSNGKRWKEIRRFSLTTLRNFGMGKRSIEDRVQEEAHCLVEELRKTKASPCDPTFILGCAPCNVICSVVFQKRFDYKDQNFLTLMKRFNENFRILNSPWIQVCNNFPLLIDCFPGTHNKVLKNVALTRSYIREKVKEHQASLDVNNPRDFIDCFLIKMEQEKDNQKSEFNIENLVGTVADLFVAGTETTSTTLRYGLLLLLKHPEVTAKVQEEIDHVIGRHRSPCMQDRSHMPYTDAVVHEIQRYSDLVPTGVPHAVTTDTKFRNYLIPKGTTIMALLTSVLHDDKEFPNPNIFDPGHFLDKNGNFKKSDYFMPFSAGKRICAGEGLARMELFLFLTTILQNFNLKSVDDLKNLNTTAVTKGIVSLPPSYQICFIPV
Nature of the data set: Inhibition of CYP2C8 in human liver microsomes using amodiaquine as substrate assessed as residual activity at 5 uM after 20 mins by HPLC analysis. It is filed as ADME. To be noted: probe amodiaquine, read-out: Activity.

The next data set addresses CYP2C19 (Homo sapiens, UniProt P33261). Nature of the data set: Inhibition of CYP2C19 in human liver microsomes using S-mephenytoin as substrate assessed as residual activity at 5 uM after 20 mins by HPLC analysis. It is filed as ADME. The following applies: probe S-mephenytoin, read-out: Activity.
A further data set has as its target CYP2D6 (Homo sapiens, UniProt P10635). Nature of the data set: Inhibition of CYP2D6 in human liver microsomes using dextromethorphan as substrate assessed as residual activity at 5 uM after 20 mins by HPLC analysis. It counts as ADME. To be noted: probe dextromethorphan, read-out: Activity.
The target in the next data set is CYP3A4 (Homo sapiens, UniProt P08684). Put plainly: Inhibition of CYP3A4 in human liver microsomes using midazolam as substrate assessed as residual activity at 5 uM after 20 mins by HPLC analysis. It counts as ADME. The following applies: probe midazolam, read-out: Activity.
CYP3A4, sequence (P08684 whole entry): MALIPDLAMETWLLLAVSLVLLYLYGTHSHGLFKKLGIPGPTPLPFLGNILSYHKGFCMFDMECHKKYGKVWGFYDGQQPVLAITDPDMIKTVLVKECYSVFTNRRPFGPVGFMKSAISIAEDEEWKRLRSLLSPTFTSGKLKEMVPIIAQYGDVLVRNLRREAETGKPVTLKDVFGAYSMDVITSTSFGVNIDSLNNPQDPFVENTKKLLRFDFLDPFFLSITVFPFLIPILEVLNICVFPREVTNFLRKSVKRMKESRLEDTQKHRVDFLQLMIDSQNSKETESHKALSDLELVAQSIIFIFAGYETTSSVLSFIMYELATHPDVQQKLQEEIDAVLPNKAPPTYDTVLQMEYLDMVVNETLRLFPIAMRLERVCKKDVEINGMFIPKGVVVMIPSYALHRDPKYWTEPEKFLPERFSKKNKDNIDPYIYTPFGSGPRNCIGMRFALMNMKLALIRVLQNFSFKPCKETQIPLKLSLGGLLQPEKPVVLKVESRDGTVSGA
Data set [2] concerns the target T3, Amine oxidase [copper-containing] 3 (Homo sapiens, UniProt Q16853).
T3 sequence (Q16853 whole entry): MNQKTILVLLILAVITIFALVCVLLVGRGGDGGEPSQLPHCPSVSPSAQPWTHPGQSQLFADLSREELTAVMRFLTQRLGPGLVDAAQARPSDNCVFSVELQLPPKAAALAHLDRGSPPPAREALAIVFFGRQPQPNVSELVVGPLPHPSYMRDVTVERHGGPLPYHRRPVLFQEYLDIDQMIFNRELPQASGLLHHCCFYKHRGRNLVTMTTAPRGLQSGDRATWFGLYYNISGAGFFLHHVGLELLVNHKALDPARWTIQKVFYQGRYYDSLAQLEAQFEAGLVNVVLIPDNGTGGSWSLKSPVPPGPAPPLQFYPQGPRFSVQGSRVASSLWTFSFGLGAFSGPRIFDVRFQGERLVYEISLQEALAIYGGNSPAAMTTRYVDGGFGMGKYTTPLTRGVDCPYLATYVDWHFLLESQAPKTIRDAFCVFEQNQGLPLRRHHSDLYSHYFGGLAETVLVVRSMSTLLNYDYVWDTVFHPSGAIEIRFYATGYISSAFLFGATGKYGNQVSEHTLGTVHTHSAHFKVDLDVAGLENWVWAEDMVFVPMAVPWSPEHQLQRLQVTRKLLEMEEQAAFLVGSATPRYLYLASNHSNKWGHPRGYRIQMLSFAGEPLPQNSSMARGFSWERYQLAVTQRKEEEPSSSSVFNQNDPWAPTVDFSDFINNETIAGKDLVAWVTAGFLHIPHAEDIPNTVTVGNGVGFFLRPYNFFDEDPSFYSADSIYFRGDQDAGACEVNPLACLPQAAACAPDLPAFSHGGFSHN
Put plainly: Inhibition of human VAP-1 expressed in CHO cells preincubated for 20 mins followed by [14C]-benzylamine addition measured after 1 hr by scintillation spectrometric analysis. It is filed as cell-based.

Another data set has as its target CYP2C9 (Homo sapiens, UniProt P11712). Nature of the data set: Inhibition of CYP2C9 in human liver microsomes using diclofenac as substrate assessed as residual activity at 5 uM after 20 mins by HPLC analysis. The following applies: probe diclofenac, read-out: Activity. It is filed as ADME.
The nature of data set [3]: Stability in Beagle dog plasma assessed as parent compound remaining at 2 uM after 6 hrs by LC-MS/MS analysis relative to initial concentration. It is filed as ADME, cell-free, Canis lupus familiaris. The following applies: read-out: Stability.
A short description of data set [4]: Stability in cynomolgus monkey plasma assessed as parent compound remaining at 2 uM after 6 hrs by LC-MS/MS analysis relative to initial concentration. It counts as ADME, cell-free, Macaca fascicularis. The following applies: read-out: Stability.
Data set [5] is described as follows: Stability in human plasma assessed as parent compound remaining at 2 uM after 6 hrs by LC-MS/MS analysis relative to initial concentration. The following applies: read-out: Stability. It counts as ADME, cell-free.
Data set [6] is described as follows: Stability in Wistar rat plasma assessed as parent compound remaining at 2 uM after 6 hrs by LC-MS/MS analysis relative to initial concentration. It is filed as ADME, cell-free. To be noted: read-out: Stability.

CYP2D6, sequence (P10635 whole entry): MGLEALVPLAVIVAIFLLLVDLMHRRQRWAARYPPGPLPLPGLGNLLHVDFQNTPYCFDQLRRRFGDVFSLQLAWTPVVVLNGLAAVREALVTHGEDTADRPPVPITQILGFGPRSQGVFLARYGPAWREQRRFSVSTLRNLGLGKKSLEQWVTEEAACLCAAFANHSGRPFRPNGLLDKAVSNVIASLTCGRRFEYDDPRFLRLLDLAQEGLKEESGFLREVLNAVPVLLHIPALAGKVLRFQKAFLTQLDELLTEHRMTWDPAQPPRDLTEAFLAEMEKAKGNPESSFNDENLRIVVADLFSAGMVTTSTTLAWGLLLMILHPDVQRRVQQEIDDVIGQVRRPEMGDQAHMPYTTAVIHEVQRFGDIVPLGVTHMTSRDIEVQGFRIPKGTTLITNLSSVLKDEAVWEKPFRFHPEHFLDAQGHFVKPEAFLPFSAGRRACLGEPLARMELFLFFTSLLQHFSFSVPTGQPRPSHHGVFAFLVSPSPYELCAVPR
CYP2C19, sequence (P33261 whole entry): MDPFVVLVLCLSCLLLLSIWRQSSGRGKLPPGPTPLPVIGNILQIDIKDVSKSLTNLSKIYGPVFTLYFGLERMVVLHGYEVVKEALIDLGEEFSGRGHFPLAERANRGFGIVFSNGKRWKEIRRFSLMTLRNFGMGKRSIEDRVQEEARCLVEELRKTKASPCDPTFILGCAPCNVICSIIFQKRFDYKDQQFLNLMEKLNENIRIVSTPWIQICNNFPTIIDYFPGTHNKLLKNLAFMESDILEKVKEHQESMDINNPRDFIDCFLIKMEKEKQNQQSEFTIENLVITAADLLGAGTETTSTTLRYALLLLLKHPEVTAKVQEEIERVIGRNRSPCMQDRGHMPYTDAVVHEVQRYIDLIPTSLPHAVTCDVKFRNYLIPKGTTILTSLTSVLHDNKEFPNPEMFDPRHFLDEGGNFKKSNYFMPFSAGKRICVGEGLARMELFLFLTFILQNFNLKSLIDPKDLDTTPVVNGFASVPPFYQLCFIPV
CYP2C9, sequence (P11712 whole entry): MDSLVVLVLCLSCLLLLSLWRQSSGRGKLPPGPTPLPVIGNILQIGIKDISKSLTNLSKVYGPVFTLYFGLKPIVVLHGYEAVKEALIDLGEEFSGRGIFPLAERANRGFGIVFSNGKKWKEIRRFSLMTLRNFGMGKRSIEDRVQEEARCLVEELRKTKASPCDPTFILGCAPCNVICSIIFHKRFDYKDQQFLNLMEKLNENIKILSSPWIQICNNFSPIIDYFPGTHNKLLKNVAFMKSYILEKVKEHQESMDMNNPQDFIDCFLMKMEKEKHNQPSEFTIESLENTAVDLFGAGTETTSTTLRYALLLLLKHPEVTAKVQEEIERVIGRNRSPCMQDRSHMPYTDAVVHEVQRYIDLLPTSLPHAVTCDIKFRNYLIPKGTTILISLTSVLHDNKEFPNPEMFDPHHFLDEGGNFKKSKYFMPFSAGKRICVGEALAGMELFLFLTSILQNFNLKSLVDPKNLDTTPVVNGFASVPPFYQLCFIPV

The term solubility denotes the dissolved amount per volume that the medium holds. Regarding `N=C(N)NC(=O)OCc1cccc(N2CCN(c3cccnc3)CC2)c1F.O=C(O)C(O)C(O)C(=O)O`, the solubility at 20 h, 130 µM in data set [1] came out at 31 µM. The activity at 20 min, 5 µM on CYP1A2 amounted to 94%; at CYP2C8, 99%; at CYP2C19 it was 96%; at CYP2D6, 96%; at CYP3A4 it was 61%.
As a reminder, the IC50 is the midpoint of a concentration-inhibition curve. For the compound `Cl.Cl.Cl.N=C(N)NC(=O)OCc1cccc(N2CCC(N3CCOCC3)CC2)c1`, in data set [2], the midpoint of inhibition, the IC50, lay at 0.16 µM. The compound also gave a solubility at 20 h, 130 µM in data set [1] of at least 100 µM.
For the compound `N=C(N)Nc1ccc(CCc2cnc(N3CCOCC3)nc2)cc1`, the IC50 in data set [2] was 5.1 µM.
For `Cl.Cl.Cl.N=C(N)NC(=O)OCc1cccc(N2CCN(c3ccncc3)CC2)c1`, the IC50 in data set [2] came out at 0.013 µM. In addition, the solubility at 20 h, 130 µM in [1] is at least 100 µM. In addition, the activity at 20 min, 5 µM at CYP1A2 was 86%; on CYP2C8, 25%; on CYP2C9 it was 80%; on CYP2C19, 91%; at CYP2D6, 13%; at CYP3A4, 80%.
Compound `Cc1nc(N2CCOCC2)ncc1-c1cccc(COC(=O)NC(=N)N)c1F.O=C(O)C(O)C(O)C(=O)O` yielded a half-inhibitory concentration (IC50) in data set [2] of 0.4 µM. This compound came in with a solubility at 20 h, 130 µM in data set [1] of 90 µM.
Turning to `Cl.Cl.Cl.N=C(N)NC(=O)OCc1cccc(N2CCN(c3cccnc3)CC2)c1`, in data set [2], the IC50 was 0.031 µM. For the same compound, the solubility at 20 h, 130 µM in data set [1] was at least 100 µM. The activity at 20 min, 5 µM at CYP1A2 turned out to be 55%; on CYP2C8 it was 92%; on CYP2C9, 101%; on CYP2C19 it was 99%; on CYP2D6 it was 68%; on CYP3A4 it was 64%.
`N=C(N)NC(=O)OCc1cccc(N2CCC(Oc3cccnc3)CC2)c1F.O=C(O)C(O)C(O)C(=O)O`: in data set [2], the midpoint of inhibition, the IC50, lay at 0.045 µM. Also, the solubility at 20 h, 130 µM in data set [1] is at least 100 µM. The activity at 20 min, 5 µM at CYP1A2 worked out at 93%; on CYP2C8 it was 61%; on CYP2C19, 96%; at CYP2D6, 11%; at CYP3A4 it was 32%.
As to `N=C(N)NCCc1cccc(CCc2cnc(N3CCOCC3)nc2)c1`, in data set [2], the IC50 is above 10 µM.
In turn, `N=C(N)NC(=O)OCc1cccc(N2CCN(C3CCOCC3)CC2)c1.O=C(O)C(O)C(O)C(=O)O` came in with an IC50 in data set [2] of 0.11 µM. In [1], this compound yielded a solubility at 20 h, 130 µM of at least 100 µM.
The corresponding values for `Cc1c(COC(=O)NC(=N)N)cccc1-c1cnc(N2CCOCC2)nc1.O=C(O)C(O)C(O)C(=O)O` are 0.41 µM and 34 µM.
In data set [2], `CN(Cc1cccc(-c2cnc(N3CCOCC3)nc2)c1)C(=O)NC(=N)N` had an IC50 of 0.53 µM.
Regarding `N=C(N)NC(=O)OCc1cccc(N2CC(Oc3cccnc3)C2)c1F.N=C(N)NC(=O)OCc1cccc(N2CC(Oc3cccnc3)C2)c1F.O=C(O)C(O)C(O)C(=O)O`, the IC50 in data set [2] amounted to 0.024 µM. In data set [1], the solubility at 20 h, 130 µM is at least 100 µM. Further, the activity at 20 min, 5 µM on CYP1A2 was found to be 84%; at CYP2C8 it was 78%; on CYP2C19 it was 66%; at CYP2D6, 16%; at CYP3A4 it was 56%.
In data set [2], `Cl.Cl.Cl.N=C(N)NC(=O)OCc1cccc(N2CCN(c3ccccn3)CC2)c1` gave an IC50 of 0.14 µM. The solubility at 20 h, 130 µM in data set [1] is at least 100 µM.
As to `CN(Cc1cccc(-c2cnc(N3CCOCC3)nc2)c1)C(=O)CN.O=C(O)C(O)C(O)C(=O)O`, in data set [2], it took 0.031 µM to reach half-maximal inhibition (IC50). The same compound showed a solubility at 20 h, 130 µM in [1] of at least 100 µM.
For the compound `N=C(N)NC(=O)Cc1cccc(CCc2cnc(N3CCOCC3)nc2)c1`, in data set [2], it took 0.054 µM to reach half-maximal inhibition (IC50).
The compound `Cl.N=C(N)NC(=O)OCc1cccc(-c2cnc(N3CCOCC3)nc2)c1F` displayed an IC50 in data set [2] of 0.0092 µM. The compound also displayed a solubility at 20 h, 130 µM in data set [1] of 7.5 µM.
The corresponding values for `Cl.Cl.N=C(N)NC(=O)OCc1ccc(F)c(-c2cnc(N3CCOCC3)nc2)c1` are 0.099 µM and 68 µM.
Consider `N=C(N)NC(=O)OCc1cccc(-c2cnc(N3CCOCC3)nc2)c1.O=C(O)C(O)C(O)C(=O)O`, for which the remaining at 6 h, 2 µM is 98.3% in [3], 103% in [4], 101% in [5] and 105% in [6]. The compound further came in with an IC50 in data set [2] of 0.047 µM. Further, the concentration in solution in [1] (solubility at 20 h, 130 µM) was 8.3 µM. Further, the activity at 20 min, 5 µM on CYP1A2 is 96%; at CYP2C8, 83%; at CYP2C19 it was 102%; on CYP2D6 it was 93%; on CYP3A4, 109%.
`N=C(N)Nc1cccc(CCc2cnc(N3CCOCC3)nc2)c1` showed a half-inhibitory concentration (IC50) in [2] above 10 µM.
Regarding `N=C(N)NC(=O)OCc1ccc(F)c(-c2cnc(N3CCOCC3)nc2)c1F.N=C(N)NC(=O)OCc1ccc(F)c(-c2cnc(N3CCOCC3)nc2)c1F.O=C(O)C(O)C(O)C(=O)O`, in [2], it took 0.077 µM to reach half-maximal inhibition (IC50). In data set [1], the concentration in solution (solubility at 20 h, 130 µM) came to 17 µM.
Take `N=C(N)NC(=O)Cc1cccc(-c2cnc(N3CCOCC3)nc2)c1`: half-maximal inhibition in data set [2] (IC50) required 0.056 µM.
Take `Cl.Cl.N=C(N)NC(=O)OCc1cccc(-c2cnc(N3CCOCC3)nc2)c1Cl`: inhibition in data set [2] was half-maximal at 0.6 µM (IC50). The amount in solution in data set [1] (solubility at 20 h, 130 µM) came to 8.2 µM.
In turn, `Cc1ncccc1OC1CN(c2cccc(COC(=O)NC(=N)N)c2F)C1.O=C(O)C(O)C(O)C(=O)O` yielded a half-inhibitory concentration (IC50) in data set [2] of 0.04 µM. This compound also showed a solubility at 20 h, 130 µM in data set [1] of at least 100 µM. The activity at 20 min, 5 µM at CYP1A2 was 89%; on CYP2C8, 46%; at CYP2C19 it was 91%; on CYP2D6, 77%; on CYP3A4, 96%.
